Like-named read-outs stand apart in the source and are kept apart here.
Target: T1, truncated human beta-secretase (residues 1-458, His6-tagged at the C-terminus) (Homo sapiens, UniProt P56817)
T1 construct: truncated human beta-secretase (residues 1-458, His6-tagged at the C-terminus); His6 (C); made in house; host or cells: insect cells D. melanogaster S2 (baculovirus expression system (so in the source))
Test: BACE fluorescence quench assay
Format: biochemical
Protocol: The assay was performed at room temperature in 96-well white opaque Optiplates aque Optiplates (PerkinElmer, Waltham, Mass.) in a total volume of 200 μl of the incubation mixture containing 50 mM sodium acetate buffer, pH 4.5, 0.4 μM FRET substrate, 2.4 nM enzyme, 5% DMSO, and 0.05% Brij-35. The tested compounds were serially diluted in DMSO and pre-incubated with the substrate. The reaction was started by addition of enzyme, and the progress of the reaction was followed by measuring fluorescence with an excitation wavelength of 480 nm and an emission wavelength of 520 nm. Ten measurements were taken every 5-10 min, and the intensity of fluorescence was regressed against time in order to derive velocities of reaction in all 96 wells. […] IC50 values were calculated by fitting percent inhibition vs. inhibitor concentration into a four-parametric logistic model using XLFit software (IDBS, Guildford, UK).

[1] = in vitro enzyme activity, BACE fluorescence assay, pH 4.5, read-out: IC50

T1 sequence (P56817 22-458): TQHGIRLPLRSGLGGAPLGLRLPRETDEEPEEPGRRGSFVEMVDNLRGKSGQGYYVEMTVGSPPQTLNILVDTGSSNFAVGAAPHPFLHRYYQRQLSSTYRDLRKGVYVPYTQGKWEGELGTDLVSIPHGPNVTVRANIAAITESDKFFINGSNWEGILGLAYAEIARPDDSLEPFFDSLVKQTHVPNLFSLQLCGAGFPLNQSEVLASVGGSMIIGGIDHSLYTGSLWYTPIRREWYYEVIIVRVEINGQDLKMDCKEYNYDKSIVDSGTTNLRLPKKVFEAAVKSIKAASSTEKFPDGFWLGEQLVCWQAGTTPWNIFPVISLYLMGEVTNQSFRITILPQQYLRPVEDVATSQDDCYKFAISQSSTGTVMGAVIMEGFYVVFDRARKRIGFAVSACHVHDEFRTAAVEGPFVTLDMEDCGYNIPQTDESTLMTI

IC50 [1] [nM] | Structure (SMILES) | IC50 [nM]
5000 to 10000 | Cc1ccc(C#N)cc1-c1ccc2c(c1)[C@]1(C[C@@H](C3CCOC(C)(C)C3)O2)N=C(N)N(C)C1=O (stereo partly shown) [Compound 437] | 
 | CN1C(=O)[C@@]2(C[C@@H](c3ccccc3)Oc3ccc(Br)cc32)N=C1N (relative stereo) [Compound 44b, Cis-2′-amino-6-bromo-1′-methyl-2-phenylspiro[chroman-4,4′-imidazol]-5′(1′H)-one] | 5000 to 10000
 | CN1C(=O)[C@@]2(C[C@H](c3ccccc3)Oc3ccc(Br)cc32)N=C1N (racemic) [Compound 44a, Trans-2′-amino-6-bromo-1′-methyl-2-phenylspiro[chroman-4,4′-imidazol]-5′(1′H)-one] | 5000 to 10000
100 to 500 | COc1ccc(OC)c(-c2ccc3c(c2)[C@]2(C[C@@]4(CCCOC4)O3)N=C(N)N(C)C2=O)c1 [Compound 321] | 
100 to 500 | CN1OC2(C[C@@H](C3CCCOC3)Oc3ccc(-c4cccnc4F)cc32)N=C1N (stereo partly shown) [Compound 89a] | 
 | CCN(CC)C(=O)c1ccc(-c2ccc3c(c2)C2(CC(c4ccccc4)O3)N=C(N)N(C)C2=O)cc1 (stereo not shown) [Compound 71, 4-(2′-amino-1′-methyl-5′-oxo-2-phenyl-1′,5′-dihydro-spiro[chroman-4,4′-imidazole]-6-yl)-N,N-diethylbenzamide] | 10000 to 50000
1000 to 5000 | CN1OC2(CC(C3CCOC(C)(C)C3)Oc3ccc(-c4cccc(Cl)n4)cc32)N=C1N (stereo not shown) [Compound 393] | 
500 to 1000 | CN1C(=O)C2(CC3(CCCCCC3)Oc3ccc(-c4cccc(C#N)c4)cc32)N=C1N (stereo not shown) [Compound 78] | 
 | CNS(=O)(=O)c1cccc(-c2ccc3c(c2)C2(CC(c4ccccc4)O3)N=C(N)N(C)C2=O)c1 (stereo not shown) [Compound 48, 3-(2′-amino-1′-methyl-5′-oxo-2-phenyl-1′,5′-dihydrospiro[chroman-4,4′-imidazole]-6-yl)-N-methylbenzenesulfonamide] | 5000 to 10000
10000 to 50000 | NC1=NC2(CC(c3ccccc3)Oc3ccc(Br)cc32)C(=O)N1CCC1CC1 (stereo not shown) [Compound 59, 2′-amino-6-bromo-1′-(2-cyclopropylethyl)-2-phenylspiro[chroman-4,4′-imidazol]-5′(1′H)-one] | 
1 to 100 | CN1C(=O)[C@@]2(C[C@H](c3ccccc3)Oc3ccc(-c4cccc(C#N)c4)cc32)N=C1N (racemic) [Compound 2a, 3-(2′-amino-1′-methyl-5′-oxo-2-phenyl-1′,5′-dihydrospiro[chroman-4,4′-imidazole]-6-yl)benzonitrile] | 
1000 to 5000 | CCOc1ccc(Cl)cc1-c1ccc2c(c1)[C@]1(C[C@@]3(CCCOC3)O2)N=C(N)N(C)C1=O [Compound 378] | 
100 to 500 | CN1OC2(CC(C3CCCOC3)Oc3ccc(-c4cccc(Cl)c4)cc32)N=C1N (stereo not shown) [Compound 87] | 
100 to 500 | CN1C(=O)[C@@]2(C[C@@]3(CCCOC3)Oc3ccc(-c4cccc(Cl)c4)cc32)N=C1N [Compound 289] | 
10000 to 50000 | COc1ccc(-c2ccc3c(c2)[C@]2(C[C@@]4(CCCOC4)O3)N=C(N)N(C)C2=O)cc1OC [Compound 458] | 
1000 to 5000 | CN1OC2(CC(C3COc4ccccc4C3)Oc3ccc(-c4cccc(C#N)c4)cc32)N=C1N (stereo not shown) [Compound 422] | 
1000 to 5000 | CN1C(=O)C2(CC(c3cccc(F)c3)Oc3ccc(Br)cc32)N=C1N (stereo not shown) [Compound 38, 2′-amino-6-bromo-2-(3-fluorophenyl)-1′-methylspiro[chroman-4,4′-imidazol]-5′(1′H)-one] | 
5000 to 10000 | CN1C(=O)C2(CC(c3cccc(F)c3F)Oc3ccc(Br)cc32)N=C1N (stereo not shown) [Compound 42] | 
5000 to 10000 | CCCOc1cccc(-c2ccc3c(c2)C2(CC4(CCCOC4)O3)N=C(N)N(C)O2)c1 (stereo not shown) [Compound 126] | 
1000 to 5000 | CC(C)=CC(CC(C)(C)O)C1CC2(N=C(N)N(C)O2)c2cc(-c3cccc(C#N)c3)ccc2O1 (stereo not shown) [Compound 401] | 
10000 to 50000 | CN1OC2(CC3(CCCOC3)Oc3ccc(C#Cc4ccccc4)cc32)N=C1N (stereo not shown) [Compound 454, 2″-methyl-6-(phenylethynyl)-2″H-spiro[spiro[chroman-2,1′-(3-oxacyclohexane)]-4,5′-[1,2,4]oxadiazol]-3″-amine] | 
100 to 500 | CN1OC2(CC(C3CCOC(C)(C)C3)Oc3ccc(-c4cc(F)cc(F)c4)cc32)N=C1N (stereo not shown) [Compound 339] | 
1000 to 5000 | CC(=O)N1CCC2(CC1)CC1(N=C(N)N(C)O1)c1cc(-c3cccc(C#N)c3)ccc1O2 (stereo not shown) [Compound 409, 3-(spiro[spiro(chroman-2,4′-(1-acetylpiperidine))-4,5′-(3-amino-2-methyl-2H-[1,2,4]oxadiazole)]-6-yl)benzonitrile] | 
 | CC(=O)NCc1cccc(-c2ccc3c(c2)C2(CC(c4ccccc4)O3)N=C(N)N(C)C2=O)c1 (stereo not shown) [Compound 43, N-(3-(2′-amino-1′-methyl-5′-oxo-2-phenyl-1′,5′-dihydrospiro[chroman-4,4′-imidazole]-6-yl)benzyl)acetamide] | 5000 to 10000
5000 to 10000 | CN1OC2(CC3(COC(C)(C)OC3)Oc3ccc(-c4cccc(C#N)c4)cc32)N=C1N (stereo not shown) [Compound 123, 3-(3″-imino-2″-methylspiro[spiro(chroman-2,1′-(4,4-dimethyl-3,5-dioxane))-4,5″-[1,2,4]oxadiazolidine]-6-yl)benzonitrile] | 

IC50 [1] [nM] | Structure (SMILES) | IC50 [nM]
1000 to 5000 | COC1CCC2(CC1)CC1(N=C(N)N(C)O1)c1cc(-c3cccc(C#N)c3)ccc1O2 (stereo not shown) [Compound 388] | 
100 to 500 | CN1C(=O)C2(CC(c3ccccc3)Oc3ccc(-c4cccc(C5CC5)c4)cc32)N=C1N (stereo not shown) [Compound 11, 2′-amino-6-(3-cyclopropylphenyl)-1′-methyl-2-phenylspiro[chroman-4,4′-imidazol]-5′(1′H)-one] | 
100 to 500 | CN1C(=O)[C@@]2(C[C@@]3(CCCOC3)Oc3ccc(-c4ccc(F)c(Cl)c4)cc32)N=C1N [Compound 310] | 
10000 to 50000 | CN1C(=O)C2(C[C@H]([C@@H]3CCOC(C)(C)C3)Oc3ccc(-c4cccc(C#N)c4)cc32)N=C1N (stereo partly shown) [Compound 453] | 
1000 to 5000 | CC(C)=CC(CCO)C1CC2(N=C(N)N(C)O2)c2cc(-c3cc(C#N)ccc3F)ccc2O1 (stereo not shown) [Compound 391] | 
100 to 500 | CN1C(=O)[C@@]2(C[C@@]3(CCCOC3)Oc3ccc(-c4cc(C#N)cc(C#N)c4)cc32)N=C1N [Compound 309] | 
1000 to 5000 | CN1C(=O)C2(CC3(CCCOC3)Oc3ccc(-c4ccsc4)cc32)N=C1N (stereo not shown) [Compound 397] | 
1000 to 5000 | CC(C)=CC(CCO)C1CC2(N=C(N)N(C)O2)c2cc(-c3cc(F)cc(C#N)c3)ccc2O1 (stereo not shown) [Compound 377] | 
1000 to 5000 | CN1OC2(CC3(CCOC(C)(C)C3)Oc3ccc(-c4cccc(C#N)c4)cc32)N=C1N (stereo not shown) [Compound 396] | 
100 to 500 | CN1C(=O)[C@@]2(C[C@@]3(CCCOC3)Oc3ccc(-c4cccc(Br)c4)cc32)N=C1N [Compound 336] | 
10000 to 50000 | CN1C(=O)[C@@]2(C[C@@]3(CCCOC3)Oc3ccc(-c4cc(C#N)ccc4C(F)(F)F)cc32)N=C1N [Compound 449] | 
 | CN1C(=O)C2(CC(c3ccccc3)Oc3ccc(-c4cccc(C(=O)NCCC#N)c4)cc32)N=C1N (stereo not shown) [Compound 47, 3-(2′-amino-1′-methyl-5′-oxo-2-phenyl-1′,5′-dihydrospiro[chroman-4,4′-imidazole]-6-yl)-N-(2-cyanoethyl)benzamide] | 5000 to 10000
5000 to 10000 | COc1cccc(C2CC3(N=C(N)N(C)C3=O)c3cc(Br)ccc3O2)c1 (stereo not shown) [Compound 46, 2′-amino-6-bromo-2-(3-methoxyphenyl)-1′-methylspiro[chroman-4,4′-imidazol]-5′(1′H)-one] | 
 | CN(C)C(=O)c1cccc(-c2ccc3c(c2)C2(CC(c4ccccc4)O3)N=C(N)N(C)C2=O)c1 (stereo not shown) [Compound 39, 3-(2′-amino-1′-methyl-5′-oxo-2-phenyl-1′,5′-dihydrospiro[chroman-4,4′-imidazole]-6-yl)-N,N-dimethylbenzamide] | 1000 to 5000
100 to 500 | CN1C(=O)C2(CC3(CCCOC3)Oc3ccc(-c4cc(F)ccc4F)cc32)N=C1N (stereo not shown) [Compound 332] | 
500 to 1000 | CN1OC2(CC(C3CCOC(C)(C)C3)Oc3ccc(-c4cc(C#N)ccc4C(F)(F)F)cc32)N=C1N (stereo not shown) [Compound 354] | 
500 to 1000 | CN1OC2(CC(C3CCOC3)Oc3ccc(-c4cccc(C#N)c4)cc32)N=C1N (stereo not shown) [Compound 94] | 
500 to 1000 | CN1C(=O)C2(CC(c3cccc(Cl)c3)Oc3ccc(-c4cccc(C#N)c4)cc32)N=C1N (stereo not shown) [Compound 20, 3-(2′-amino-2-(3-chlorophenyl)-1′-methyl-5′-oxo-1′,5′-dihydrospiro[chroman-4,4′-imidazole]-6-yl)benzonitrile] | 
1000 to 5000 | CN1OC2(CC(c3cccnc3)Oc3ccc(-c4cccc(C#N)c4)cc32)N=C1N (stereo not shown) [Compound 95, 3-(3′-amino-2′-methyl-2-(pyridine-3-yl)-2′H-spiro[chroman-4,5′-[1,2,4]-oxadiazole]-6-yl)benzonitrile] | 
100 to 500 | CN1OC2(CC3(CCCOC3)Oc3ccc(-c4cccc(Cl)c4)cc32)N=C1N (stereo not shown) [Compound 110] | 
1000 to 5000 | CN1C(=O)[C@@]2(C[C@]3(CCCOC3)Oc3ccc(-c4cc(C#N)ccc4C(F)(F)F)cc32)N=C1N [Compound 380] | 
500 to 1000 | CN1C(=O)C2(CC(c3ccc(C(F)(F)F)cc3)Oc3ccc(-c4cccc(C#N)c4)cc32)N=C1N (stereo not shown) [Compound 16] | 
5000 to 10000 | Cc1cccc(-c2ccc3c(c2)[C@]2(C[C@@]4(CCCOC4)O3)N=C(N)N(C)C2=O)c1C [Compound 440] | 
100 to 500 | CN1OC2(CC(C3CCCOC3)Oc3ccc(-c4ccc(F)c(C#N)c4F)cc32)N=C1N (stereo not shown) [Compound 334] | 
